Source: US20040224981A1, “Antibacterial methods and compositions” (priority 2003, published 2004)
Read-outs that look alike come from different tables or passages of the source.

Tests used:
[1] = test system: E. faecium; assay: MIC against E. faecium; type: cell-based
Experimental: MRSi compound 5 alone and in combination with mupirocin was tested recent clinical isolates of E. faecalis (n=28) and E. faecium (n=23). Both the acetate salt and mupirocinate salts of MRSi compound 5 maintained potent activity against vancomycin-susceptible and—resistant enterococci (Tables 8, 9, and 10).

[2] = test system: MRS-resistant mutants of S. aureus; assay: Susceptibility (MIC) of MRS-resistant mutants of S. aureus; type: cell-based; conditions: Staphylococcus aureus
Experimental: MRS-resistant mutants generated in vitro in either serial passage or spontaneous resistance development studies were evaluated for susceptibility to mupirocin alone and in a 1:1 combination with MRSi compound 5.

[3] = test system: E. faecalis; assay: MIC against E. faecalis; type: cell-based; conditions: for MIC: Enterococcus faecalis, read-out: MIC
[4] = test system: S. hemolyticus; assay: MIC against S. hemolyticus; type: cell-based
Experimental: The MRS inhibitor 4 alone and in combination with mupirocin (mupirocin salt and 1:1 combination) were tested against a collection of Gram-positive pathogens.
The MRS inhibitor 8 was also prepared as a fusidate and mupirocinate salt and tested for antibacterial activity against Gram-positive bacteria (Table 3). […] MRSi compound 8 alone and the fusidate and mupirocin salts were active against mupirocin-resistant S. aureus and S. epidermidis and organisms such as E. faecalis that are not susceptible to mupirocin.
The MRS inhibitor 5 acetate and mupirocin salts were tested against a collection of Gram-positive bacteria.

[5] = test system: S. aureus; assay: MIC against S. aureus strains and clinical isolates (broth microdilution); type: cell-based, Staphylococcus aureus; conditions: Staphylococcus aureus, read-out: MIC
How it was run: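 Broth microdilution per NCCLS in cation-supplemented Mueller-Hinton broth, final inoculum 5×10^5 CFU/ml from 0.5 McFarland suspensions diluted 1:10. Trays incubated aerobically overnight with quality control strains each run. Checkerboard FIC index: ≦0.5 synergy, >0.5 to 4 additive/indifferent, >4.0 antagonism.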

[6] = recent clinical isolates of E. faecium, ALL (23)
[7] = recent clinical isolates of E. faecalis, ALL (28)

Compound: C/C(=C\C(=O)OCCCCCCCCC(=O)O)C[C@@H]1OC[C@H](C[C@@H]2O[C@H]2[C@@H](C)[C@H](C)O)[C@@H](O)[C@H]1O [Mupirocin, Pseudomonic acid A]
- MIC50 ([1]; E. faecium, Van-R(12)): 1 µg/mL
- MIC90 ([1]; E. faecium, Van-R(12)): > 8 µg/mL
- Mode (MIC) ([1]; E. faecium, Van-R(12)): 1 µg/mL
- MIC50 ([1]; E. faecium, Van-S (11)): 1 µg/mL
- MIC90 ([1]; E. faecium, Van-S (11)): 1 µg/mL
- Mode (MIC) ([1]; E. faecium, Van-S (11)): 1 µg/mL
- Range (MIC) ([1]; E. faecium, Van-S (11), in µg/mL): 0.25-1
- MIC ([1]; Enterococcus faecium, ATCC33667, Table 8, E. faecium ATCC 33667, read-out: MIC): 1 µg/mL
- MIC50 [1, 6]: 1 µg/mL
- MIC90 [1, 6]: > 8 µg/mL
- Mode (MIC) [1, 6]: 1 µg/mL
- MIC ([2]; ATCC29213, S. aureus ATCC 29213, metS wild-type): 0.12 µg/mL
- MIC ([2]; S. aureus SP-9B5, metS I57N, V296F): 0.5 µg/mL
- MIC ([2]; S. aureus SP-21A, metS A77V): 1 µg/mL
- MIC ([2]; read-out: MICs ranging, all the MRS-resistant mutants): 0.12 to 1 µg/mL
- MIC50 ([3]; E. faecalis, Van-R(11)): > 8 µg/mL
- MIC90 ([3]; E. faecalis, Van-R(11)): > 8 µg/mL
- Mode (MIC) ([3]; E. faecalis, Van-R(11)): > 8 µg/mL
- MIC50 ([3]; E. faecalis, Van-S (16)): > 8 µg/mL
- MIC90 ([3]; E. faecalis, Van-S (16)): > 8 µg/mL
- Mode (MIC) ([3]; E. faecalis, Van-S (16)): > 8 µg/mL
- MIC ([3]; ATCC29212, Table 2, E. faecalis ATCC 29212): 8 µg/mL
- MIC ([3]; ATCC29212, Table 3, E. faecalis ATCC 29212): 8 µg/mL
- MIC ([3]; ATCC29212, Table 4, E. faecalis ATCC 29212): > 8 µg/mL
- MIC ([3]; ATCC 51299 / VRE, Table 8, E. faecalis ATCC 51299 (VRE)): 32 µg/mL
- MIC ([3]; Table 2, E. faecalis 1): 8 µg/mL
- MIC ([3]; Table 2, E. faecalis 7): 8 µg/mL
- MIC ([3]; Table 3, E. faecalis 1): 8 µg/mL
- MIC ([3]; Table 3, E. faecalis 7): 8 µg/mL
- MIC ([3]; Table 4, E. faecalis 1): > 8 µg/mL
- MIC ([3]; Table 4, E. faecalis 7): > 8 µg/mL
- MIC ([3]; Table 8, E. faecalis 1): 32 µg/mL
- MIC ([3]; Table 8, E. faecalis 7): 64 µg/mL
- MIC50 [3, 7]: > 8 µg/mL
- MIC90 [3, 7]: > 8 µg/mL
- Mode (MIC) [3, 7]: > 8 µg/mL
- MIC ([4]; Table 2, S. hemolyticus NRS50, read-out: MIC): 0.12 µg/mL
- MIC ([4]; Table 2, S. hemolyticus NRS116, read-out: MIC): 0.25 µg/mL
- MIC ([4]; Table 3, S. hemolyticus NRS50): 0.12 µg/mL
- MIC ([4]; Table 3, S. hemolyticus NRS116): 0.25 µg/mL
- MIC ([4]; Table 4, S. hemolyticus NRS50): 0.12 µg/mL
- MIC ([4]; Table 4, S. hemolyticus NRS116): 0.25 µg/mL
- MIC ([5]; ATCC29213, Table 2, S. aureus ATCC 29213): 0.12 µg/mL
- MIC ([5]; ATCC29213, Table 3, S. aureus ATCC 29213): 0.12 µg/mL
- MIC ([5]; ATCC29213, Table 4, S. aureus ATCC 29213): 0.12 µg/mL
- MIC ([5]; ATCC43300, S. aureus ATCC 43300 (ORSA)): 0.12 µg/mL
- MIC ([5]; ATCC43300, Table 2, S. aureus ATCC 43300 (ORSA)): 0.25 µg/mL
- MIC ([5]; ATCC43300, Table 3, S. aureus ATCC 43300 (ORSA)): 0.25 µg/mL
- MIC ([5]; NRS 1 / VISA, S. aureus NRS1 (VISA)): 0.12 µg/mL
- MIC ([5]; NRS 1 / VISA, VISA, S. aureus NRS1 (Mu50)): 0.06 µg/mL
- MIC ([5]; NRS 3 / VISA, VISA, S. aureus NRS3 (HIP5827)): 0.5 µg/mL
- MIC ([5]; NRS 4 / VISA, VISA, S. aureus NRS4 (HIP5836)): 0.12 µg/mL
- MIC ([5]; NRS 18 / VISA, VISA, S. aureus NRS18 (HIP06854)): 8 µg/mL
- MIC ([5]; NRS 24 / VISA, VISA, S. aureus NRS24 (HIP09143)): 8 µg/mL
- MIC ([5]; NRS 49 / VISA, VISA, S. aureus NRS49 (Korea)): 0.03 µg/mL
- MIC ([5]; NRS54, Table 6, high-level mupirocin-resistant S. aureus NRS54): > 256 µg/mL
- MIC ([5]; NRS 54 / VISA, VISA, S. aureus NRS54 (Brazil)): > 8 µg/mL
- MIC ([5]; NRS 56 / VISA, VISA, S. aureus NRS56 (Brazil)): 0.12 µg/mL
- MIC ([5]; NRS107, S. aureus NRS107 (HL Mup rest.)): > 64 µg/mL
